What was measured:
δ opioid receptors = δ opioid receptors (Mus musculus, UniProt P32300); test: cell-based
[1] = target: human δ opioid receptors (hDOR) (Homo sapiens, UniProt P41143); test: biochemical; type: binding
μ opioid receptors = μ opioid receptors (Cavia porcellus, UniProt P97266); test: cell-based; set-up: species or system guinea pig
[2] = target: rat μ-opioid receptors (rMOR) (Rattus norvegicus, UniProt P33535); test: biochemical; type: binding
Chain of rat μ-opioid receptors (rMOR) (P33535 whole entry): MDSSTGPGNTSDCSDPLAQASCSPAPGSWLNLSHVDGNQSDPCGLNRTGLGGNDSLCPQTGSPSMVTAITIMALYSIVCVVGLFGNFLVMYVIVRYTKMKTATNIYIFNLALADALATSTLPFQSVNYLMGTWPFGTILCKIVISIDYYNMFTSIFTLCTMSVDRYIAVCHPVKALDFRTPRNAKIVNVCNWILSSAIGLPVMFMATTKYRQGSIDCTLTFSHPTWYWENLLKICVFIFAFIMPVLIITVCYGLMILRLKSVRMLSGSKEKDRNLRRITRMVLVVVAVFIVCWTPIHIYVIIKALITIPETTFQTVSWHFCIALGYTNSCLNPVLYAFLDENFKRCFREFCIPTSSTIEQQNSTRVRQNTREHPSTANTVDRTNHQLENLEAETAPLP

Chain of human δ opioid receptors (hDOR) (P41143 whole entry): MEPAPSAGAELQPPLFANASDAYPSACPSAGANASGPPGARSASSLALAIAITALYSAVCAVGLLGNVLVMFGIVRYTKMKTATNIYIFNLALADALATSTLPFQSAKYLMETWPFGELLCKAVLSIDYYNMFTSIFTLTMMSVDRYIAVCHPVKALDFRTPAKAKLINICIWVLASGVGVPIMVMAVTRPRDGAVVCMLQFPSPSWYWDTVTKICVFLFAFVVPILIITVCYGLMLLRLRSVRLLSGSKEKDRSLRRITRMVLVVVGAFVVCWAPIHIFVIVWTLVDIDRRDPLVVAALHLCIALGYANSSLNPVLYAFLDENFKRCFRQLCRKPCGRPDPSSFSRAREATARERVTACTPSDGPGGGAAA
Chain of δ opioid receptors (P32300 whole entry): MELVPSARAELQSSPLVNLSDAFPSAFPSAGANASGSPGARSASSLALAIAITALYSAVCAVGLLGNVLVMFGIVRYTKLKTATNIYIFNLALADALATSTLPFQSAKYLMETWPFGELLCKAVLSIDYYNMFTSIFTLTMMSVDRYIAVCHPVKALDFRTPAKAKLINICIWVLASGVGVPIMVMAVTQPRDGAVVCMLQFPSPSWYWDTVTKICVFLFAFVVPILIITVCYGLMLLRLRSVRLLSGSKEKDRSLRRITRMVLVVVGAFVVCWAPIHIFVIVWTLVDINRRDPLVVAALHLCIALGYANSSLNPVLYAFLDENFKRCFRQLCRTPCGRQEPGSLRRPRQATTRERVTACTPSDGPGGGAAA
Chain of μ opioid receptors (P97266 whole entry, looked up): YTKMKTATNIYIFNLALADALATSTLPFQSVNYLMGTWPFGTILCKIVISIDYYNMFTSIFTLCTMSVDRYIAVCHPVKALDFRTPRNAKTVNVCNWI

CCC(=O)N(CC1CCCCN1Cc1ccc2c(c1)CCC[C@H]2N(C(=O)CCNC(=O)[C@H](Cc1ccccc1)NC(=O)CNC(=O)[C@@H](C)NC(=O)[C@@H](N)Cc1c(C)cc(O)cc1C)C(=O)CCNC(=O)[C@H](Cc1ccccc1)NC(=O)CNC(=O)[C@@H](C)NC(=O)[C@@H](N)Cc1c(C)cc(O)cc1C)c1ccc(F)c(F)c1 (stereo partly drawn) [Compound 10]
IC50 (δ opioid receptors): 6.1 ± 1.5 nM | IC50 [1]: 1.41 nM | Ki [1]: 0.6 nM | IC50 (μ opioid receptors): 2.1 ± 0.45 nM | IC50 [2]: 1.29 nM | Ki [2]: 0.6 nM

From article PMC4873255 (Bioorganic & medicinal chemistry letters, 2015)
